What was measured:
[1] = Intrinsic dissolution rate, low-volume rotating disc method; type: physicochemical; settings: salt made at 1 g scale from ethanol; disc 0.07 cm^2, 500 rpm, 50 mL USP Phosphate buffer pH 6.8 at 37° C.
Experimental: The salt manufactured at 1 g scale from ethanol was further investigated for its intrinsic dissolution rate and compared to the free base of 4-(5-{(1R)-1-[5-(3-chlorophenyl)isoxazol-3-yl]ethoxy}-4-methyl-4H-1,2,4-triazol-3-yl)pyridine. […] Dissolution rates of the base and salt were measured with a low-volume rotating disc method. Discs were compressed from pure compound and centrically mounted in a disc holder with an exposed area of 0.07 cm^2. The disc holder rotated at 500 rpm immersed in 50 mL USP Phosphate buffer pH 6.8 at 37° C. The compound was analyzed UV-Online by a Spectrophotometer with a flow cell and a peristaltic pump with continuous circulation.

[2] = Moisture sorption / deliquescence of the salt versus relative humidity; type: physicochemical

| intrinsic dissolution rate as compared to the free base [1] | increased moisture sorption at relative humidity ([2]; crystalline hydrochloride salt) | deliquesce at relative humidity ([2]; first batch, oiled salt recrystallised in ethanol) | deliquesce at relative humidity ([2]; second batch, salt manufactured from ethanol at 68° C.) | SMILES |
| --- | --- | --- | --- | --- |
| 1000 times | 90-95 % RH |  |  | C[C@@H](Oc1nnc(-c2ccncc2)n1C)c1cc(-c2cccc(Cl)c2)on1.Cl [Example 17, 4-(5-{(1R)-1-[5-(3chlorophenyl)isoxazol-3-yl]ethoxy}-4-methyl-4H-1,2,4-triazol-3-yl)pyridine hydrochloride] |
|  |  | 60-70 % relative humidity | 70-80 % RH | C[C@@H](Oc1nnc(-c2ccncc2)n1C)c1cc(-c2cccc(Cl)c2)on1.O=S(=O)(O)O [Example 18, 4-(5-{(1R)-1-[5-(3-chlorophenyl)isoxazol-3-yl]ethoxy}-4-methyl-4H-1,2,4-triazol-3-yl)pyridine sulphate] |

Reference: patent US7476684B2, “Compounds for the treatment of neurological, psychiatric or pain disorders” (AstraZeneca AB, priority 2005, dated 2009)
